Measurements taken from patent publication US20020065314A1, “COMPOSITIONS AND METHOD FOR STIMULATING HAIR GROWTH” (priority 1995, published 2002).
“Also recorded” adds a separate entry of the source. Read-outs that look alike come from different tables or passages of the source.

Tests used:
[1] = tested on: C57BL/KsJ db/+ mice and 6 other strains of mice; experiment: Single topical application to shaved dorsum of mice: cutaneous changes and hair growth; type: in vivo, mouse
Description: The dorsal aspect of C57BL/KsJ db/+ female mice was shaved and a single topical dose of n-butyl cyanoacrylate (formulated as Nexaband^R Liquid) was applied. […] At this early stage some of these new aggregates form laminae and appear to constitute neo-angiogenesis. At day 1 post application, the gross appearance of inflammation was still apparent, and there was microscopic evidence for the formation of a lumen from an aggregate of cells in the subcutaneous layer. […] These changes were only observed in the treated area. […] Between eight and 12 days post application, hair follicles and new hair were present at the sites of application; the remainder of the shaved area remained hairless. Epidermal and dermal thickening and new hair follicle development in treated skin were pronounced until days 10-20 post application (FIGS. 3A-3B), at which time large mature hair follicles traversed the entire thickness of the dermis and subcutaneous layer (FIG. 3C). Hair follicle density reached a maximum level at about days 20-30 post application, at which time the epithelium and connective tissue elements began to return to their pre-treatment appearance (FIGS. 4A-4B).
(§1) At the gross level, the hair growth in the shaved treated area occurs at 8-12 days and reaches full length at about 14-20 days post treatment, however, the remainder of the shaved untreated area remains hairless and the hair follicles small (in telogen (resting) phase)(5A-5B). The response of hair growth to the n-butyl cyanoacrylate stimulus is very similar in 6 other strains of mice (C57BL/KsJ +/+, C57BL/KsJ db/db, Balb/cBYj +/+, Balb/cBYj nu/+, HRS/J hr/+, and RHJ/LeJ hr^rh-j/+) (FIGS. 6A-6C) and Sprague Dawley rats (FIGS. 7A-7B). The hair growth rate in the fastest growth period (at about 10-15 days post treatment) reaches 1 mm per day. This is entirely consistent with the microscopically observed stimulation of hair follicles following treatment.

Sprague Dawley rats = experiment: Single topical application, hair growth in rats; type: in vivo, rat
Description: as §1

C57BL/KsJ db/+ mice [2] = experiment: Subdermal application by subcutaneous injection; type: in vivo, mouse
Experimental: In another example, 20 μl of n-butyl cyanoacrylate was applied subdermally by subcutaneous injection to a group of C57BL/KsJ db/+ mice.

C57BL/KsJ db/+ mice [3] = conditions: for hair growth on dorsum (photograph): 31 days post application
Experimental: The induction of hair loss following treatment with certain anticancer drugs, such as cyclophosphamide or doxorubicin, is well documented (A. Tierney & J. Taylor (1991) Nurs. Stand 5:29-31; R. R. Love, et al. (1989) Cancer 63:604-612; B. W. Cline (1984) Cancer Nurs. 7:221-228). The following experiment was performed to determine the effect of n-butyl cyanoacrylate on hair regrowth in mice pre-treated with cyclophosphamide or doxorubicin. Twenty mice of strain C57BL/KsJ db/+ were peritoneally injected with either cyclophosphamide in PBS (20 mg per kilogram of body weight) or Doxorubicin in PBS (2 mg per kilogram of body weight) for 10 consecutive days. Then a single 10 μl dose of n-butyl cyanoacrylate was applied topically to an area of the shaved dorsum of each animal. Control mice, which were injected with PBS alone, were treated similarly. The effects of hair regrowth were determined both by phototrichogram (macroscopic observation using photography) and by folliculogram (microscopic observation of histological changes in the treated and untreated skin).

C57BL/KsJ db/+ mice [4] = experiment: Inhibition of n-butyl cyanoacrylate-stimulated hair growth by neutralizing antibodies; type: in vivo, mouse; conditions: day 14, sites 2 and 3, 10 μl per site
Experimental: Forty mice of strain C57BL/KsJ db/+ eight weeks old were divided into four equal groups (A-D). The dorsal aspect of the mice were shaved, and five different sites on the dorsum were designated (sites 1-5). Each site was 5-6 mm^2. Animals of group A were treated topically at sites 1, 2 & 3 with n-butyl cyanoacrylate only (10 μl per site) formulated as Nexaband^R Liquid. Animals of group B were treated topically at sites 1, 2 & 3 with the same dose of n-butyl cyanoacrylate, but sites 1 and 3 subsequently received subcutaneous injections of either anti-TGF-β1 neutralizing antibody (1 μg per g of body weight) in PBS/0.1% BSA (at site 1), or PBS/0.1% BSA as a matched control (at site 3). Group C animals were treated as for Group B except that anti-EGF neutralizing antibody was injected at site 1 instead of anti-TGF-pi. […] Group D animals were shaved only and received no treatment.
Hair regeneration was documented by macroscopic observations supported by serial photographs of treatment sites. Histological observations were made on skin biopsies taken at frequent intervals ranging from 6 hours to 21 days post-treatment.

[5] = tested on: C57BL/KsJ db/+ and C57BL/KsJ db/db mice; experiment: Effect of isobutyl cyanoacrylate on hair growth, topical; type: in vivo, mouse; conditions: C57BL/KsJ db/db, 10 μl cm^−2 topical
Experimental: The following experiment was performed to identify the effect of isobutyl cyanoacrylate, a structural analog of n-butyl cyanoacrylate, on hair growth. The shaved backs of C57BL/KsJ db/+ and C57BL/KsJ db/db mice were treated topically at a dose of 10 μl cm^−2 with either isobutyl cyanoacrylate (Sigma Chemical Co., St Louis, Mo.) or n-butyl cyanoacrylate.

[6] = tested on: C57BL/KsJ db/+ and C57BL/KsJ db/db mice; experiment: Effect of isobutyl cyanoacrylate on hair growth, topical; type: in vivo, mouse; conditions: C57BL/KsJ +/+, 10 μl cm^−2 topical
[7] = C57BL/KsJ db/+, post application

SMILES: C=C(C#N)C(=O)OCCCC [n-butyl cyanoacrylate]
- response of hair growth compared with C57BL/KsJ db/+ ([1]; 6 other strains of mice and Sprague Dawley rats): very similar
- hair growth on dorsum (photograph) ([1]; Balb/cBYj nu/+, 19 days post application): hair growth appears in a circle pattern
- hair follicle number, maximum increase treated vs untreated areas ([1]; C57BL/KsJ db/+): about 2 fold
- histology of treated skin ([1]; C57BL/KsJ db/+, 16 days following application): large mature hair follicles traversing the entire thickness of the skin
- hair growth on dorsum (photograph) ([1]; C57BL/KsJ db/+, 17 days post application): triangle pattern of hair growth
- histology of treated skin vs adjacent untreated area ([1]; C57BL/KsJ db/+, 19 days after topical treatment): high concentration of large mature hair follicles
- scanning electron micrograph, treated vs adjacent untreated area ([1]; C57BL/KsJ db/+, 23 days after treatment): higher density of hairs and deeper hair roots in the treated area
- histology of treated skin ([1]; C57BL/KsJ db/+, day 3 post application): multilayered epidermis, thickened dermis, and epidermal peg elongation; also recorded: evidence of trichogenesis was clearly seen at the treatment site
- histology of treated skin ([1]; C57BL/KsJ db/+, day 10 post application): increase in the number of mature hair follicles; also recorded: new epithelial pegs had developed into mature hair follicles
- thickness of the dermis layer, increase treated vs untreated areas ([1]; C57BL/KsJ db/+, days 16-20 post treatment): 1.5 fold
- thickness of the dermis layer, treated vs untreated areas ([1]; C57BL/KsJ db/+, first day after treatment): about 1.3 fold
- time of maximum hair follicle density [1, 7]: 20 to 30 days
- time until which epidermal and dermal thickening and new hair follicle development were pronounced [1, 7]: 10 to 20 days
- time at which dermis returns to normal thickness ([1]; C57BL/KsJ db/+, post treatment): about 70 days
- time at which epidermis returns to normal thickness ([1]; C57BL/KsJ db/+, post treatment): about 40 days
- time at which hair reaches full length ([1]; C57BL/KsJ db/+, post treatment): 14 to 20 days
- thickness of the epidermis layer, maximum increase in treated areas vs maximum level in untreated areas ([1]; C57BL/KsJ db/+, topical): about 2 fold
- early change of treated skin ([1]; C57BL/KsJ db/+, within six hours of application): slight thickening of the treated skin
- time at which new hair follicle formation occurs in treated area ([1]; after treatment): 2 to 3 days
- hair growth rate in the fastest growth period ([1]; at about 10-15 days post treatment): 1 mm per day
- hair growth on dorsum (photograph) ([1]; diabetic C57BL/KsJ db/db, 27 days post application): hair growth appears in a rectangle pattern
- hair follicle number, maximum in treated vs untreated areas ([1]; diabetic strain C57BL/KsJ db/db): about 4 fold
- time hair regrowth in treated areas remains unchanged while shaved untreated areas are hairless ([1]; genetically healing-impaired diabetic mice, post treatment): more than 216 days
- time over which no shedding of induced hair has been found ([1]; mice, post treatment): > 335 days
- length of new hairs over those in adjacent untreated area ([1]; mouse, in vivo): 1-2 mm
- localization of the hair growth response ([1]; mouse, in vivo): completely localized to the area where the stimulator is applied
- time at which hair growth occurs (is seen) in shaved treated area ([1]; post treatment, single topical dose): 8 to 12 days
- hair regrowth after repeated shaving ([1]; single application, area subsequently shaved three times at 20-day intervals): the hair keeps regrowing in the treated areas
- histology, hair follicle density treated vs untreated area (Sprague Dawley rats; Sprague Dawley rat): much higher density of hair follicles in treated area
- hair growth on dorsum (photograph) (Sprague Dawley rats; Sprague Dawley rat, 23 days post application): hair growth appears as a rectangle pattern
- time over which no shedding of induced hair has been found (Sprague Dawley rats; rats, post treatment): over 210 days
- histology after subcutaneous injection (C57BL/KsJ db/+ mice [2]; 68 days after subcutaneous injection): development of new hair follicles in the treated site
- histology after subcutaneous injection vs untreated site (C57BL/KsJ db/+ mice [2]; subcutaneous injection, 20 μl): induces de novo hair follicle formation and the thickening of full-thickness skin
- time new hair remained (until sacrifice) (C57BL/KsJ db/+ mice [3]; animals pre-treated with cyclophosphamide, after treatment): ≥ 335 days
- time of growing to full length (C57BL/KsJ db/+ mice [3]; mice pre-treated with cyclophosphamide, doxorubicin and PBS, post treatment): 15 to 18 days
- beginning of hair regrowth in treated areas (C57BL/KsJ db/+ mice [3]; mice pre-treated with cyclophosphamide, doxorubicin and PBS, single 10 μl topical dose, post treatment): 8 to 11 days
- hair growth on dorsum (photograph) (C57BL/KsJ db/+ mice [3]; pre-treated with cyclophosphamide): profound growth of new unpigmented gray hairs in the treated area
- hair growth on dorsum (photograph) (C57BL/KsJ db/+ mice [3]; pre-treated with doxorubicin): profound growth of hair with normal pigmentation in the treated area
- stimulation of hair growth at sites treated with n-butyl cyanoacrylate alone (C57BL/KsJ db/+ mice [4]): clearly evident; also recorded: new hair growth was present
- Hair growth [5]: 3+ (high hair regeneration with an area larger than 50% of the treated area)
- reproducibility of hair growth induced (mice and rats; 10 mg/10 μl cm^−2, more than 700 normal adult mice and rats, and 80 diabetic (db/db) animals): 100%
- side effect, toxic effect or tumor-like tissue formation after the treatment (mice and rats; in vivo): No any side effect or toxic effect or tumor-like tissue formation after the treatment has been observed except for a mild inflammation shortly after application
- hair growth in normal intact skin, in skin of animals pre-treated with anticancer drugs, and at edges of wounds (mice and rats; two species (rat and mouse), seven strains of mouse): stimulate hair growth
- Hair growth [6]: 3+ (high hair regeneration with an area larger than 50% of the treated area)
